Assay [1] deals with HCV sub-genomic replicon (1377/NS3-3') in HuH-7 hepatoma cells (GS4.3). Put plainly: Quantitation by ELISA of NPTII in the HCV sub-genomic replicon, GS4.3. The class given is cell-based, hepatitis C virus (HCV). The following applies: Hepatitis C virus, Huh-7; GS4.3 cells, 72 h incubation, NPTII ELISA; read-out: Replicon EC50. The method, then:
The HCV sub-genomic replicon (1377/NS3-3′, accession No. AJ242652), stably maintained in HuH-7 hepatoma cells, was created by Lohmann et al. Science 285: 110-113 (1999). The replicon-containing cell culture, designated GS4.3, was obtained from Dr. Christoph Seeger of the Institute for Cancer Research, Fox Chase Cancer Center, Philadelphia, Pa.
GS4.3 cells were maintained at 37° C., 5% CO2, in DMEM (Gibco 11965-092) supplemented with L-glutamine 200 mM (100×) (Gibco25030-081), non-essential amino acids (NEAA) (Biowhittaker 13-114E), heat-inactivated (HI) Fetal Bovine Serum (FBS) (Hyclone SH3007.03) and 750 μg/mL geneticin (G418)(Gibco 10131-035). Cells were sub-divided 1:3 or 4 every 2-3 days.
24 h prior to the assay, GS4.3 cells were collected, counted, and plated in 96-well plates (Costar 3585) at 7500 cells/well in 100 μL standard maintenance medium (above) and incubated in the conditions above. To initiate the assay, culture medium was removed, cells were washed once with PBS (Gibco 10010-023) and 90 μl Assay Medium (DMEM, L-glutamine, NEAA, 10% HI FBS, no G418) was added. Inhibitors were made as a 10× stock in Assay Medium, (3-fold dilutions from 10 μM to 56 pM final concentration, final DMSO concentration 1%), 10 μL were added to duplicate wells, plates were rocked to mix, and incubated as above for 72 h.
An NPTII Elisa kit was obtained from AGDIA, Inc. (Compound direct ELISA test system for Neomycin Phosphotransferase II, PSP 73000/4800). Manufacturer's instructions were followed, with some modifications. 10×PEB-1 lysis buffer was made up to include 500 μM PMSF (Sigma P7626, 50 mM stock in isopropanol). After 72 h incubation, cells were washed once with PBS and 150 μL PEB-1 with PMSF was added per well. Plates were agitated vigorously for 15 minutes, room temperature, then frozen at −70° C. Plates were thawed, lysates were mixed thoroughly, and 100 μl were applied to an NPTII Elisa plate. A standard curve was made. Lysate from DMSO-treated control cells was pooled, serially diluted with PEB-1 with PMSF, and applied to duplicate wells of the ELISA plate, in a range of initial lysate amount of 150 μL-2.5 μL. In addition, 100 μL buffer alone was applied in duplicate as a blank. Plates were sealed and gently agitated at room temperature for 2 h. Following capture incubation, the plates were washed 5×300 μL with PBS-T (0.5% Tween-20, PBS-T was supplied in the ELISA kit). For detection, a 1× dilution of enzyme conjugate diluent MRS-2 (5×) was made in PBS-T, into which 1:100 dilutions of enzyme conjugates A and B were added, as per instructions. Plates were resealed, and incubated with agitation, covered, room temperature, for 2 h. The washing was then repeated and 100 μL of room temperature TMB substrate was added. After approximately 30 minutes incubation (room temperature, agitation, covered), the reaction was stopped with 50 μL 3M sulfuric acid. Plates were read at 450 nm on a Molecular Devices Versamax plate reader.
Inhibitor effect was expressed as a percentage of DMSO-treated control signal, and inhibition curves were calculated using a 4-parameter equation: y=A+((B−A)/(1+((C/x)^D))), where C is half-maximal activity or EC50.
In general terms: ELISA stands for enzyme-linked immunosorbent assay.

In assay [2] the target is T1, NS3/NS4A-2 (full-length HCV NS3 protease complexed with NS4A-2) (Hepatitis C virus genotype 1a, UniProt P27958).
T1 construct: Recombinant E. coli or Baculovirus full-length NS3; host or cells: E. coli or baculovirus (insect cells)
T1 sequence (P27958 1027-1657, one chain of several): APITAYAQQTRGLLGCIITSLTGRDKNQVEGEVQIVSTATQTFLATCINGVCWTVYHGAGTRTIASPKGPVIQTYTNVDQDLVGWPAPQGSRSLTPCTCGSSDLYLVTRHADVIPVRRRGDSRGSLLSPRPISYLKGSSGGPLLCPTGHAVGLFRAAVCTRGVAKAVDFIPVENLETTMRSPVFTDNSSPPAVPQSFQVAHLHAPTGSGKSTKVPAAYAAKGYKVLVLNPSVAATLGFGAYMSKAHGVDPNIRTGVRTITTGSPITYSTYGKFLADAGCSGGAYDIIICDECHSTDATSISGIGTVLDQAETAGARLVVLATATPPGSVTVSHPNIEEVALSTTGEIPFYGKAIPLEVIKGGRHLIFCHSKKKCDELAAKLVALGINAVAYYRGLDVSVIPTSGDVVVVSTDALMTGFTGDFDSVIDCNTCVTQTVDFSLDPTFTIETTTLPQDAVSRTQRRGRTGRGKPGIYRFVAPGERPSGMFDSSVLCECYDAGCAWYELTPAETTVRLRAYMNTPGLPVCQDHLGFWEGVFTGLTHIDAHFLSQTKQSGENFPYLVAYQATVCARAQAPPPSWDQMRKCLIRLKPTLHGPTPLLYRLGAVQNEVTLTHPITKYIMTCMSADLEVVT
Put plainly: NS3 inhibition assay (NS3-NS4 protease assay). It counts as biochemical. The note with it: recombinant full-length NS3/NS4A-2, RETS1 substrate, kinetic fluorescence read; read-out: NS3-NS4 IC50. The protocol:
Recombinant E. coli or Baculovirus full-length NS3 was diluted to 3.33 μM with assay buffer and transferred material to an eppendorf tube and place in water bath in 4° C. refrigerator. The appropriate amount of NS4A-2 to 8.3 mM in assay buffer was added to equal the volume of NS3 in step 2.1.1 (conversion factor −3.8 mg/272 μL assay buffer). The material was transferred to an eppendorf tube and place in water bath in 4° C. refrigerator.
After equilibration to 4° C., equal volumes of NS3 and NS4A-2 solutions were combined in an eppendorf tube, mix gently with a manual pipettor, and incubate mixture for 15 minutes in the 4° C. water bath. Final concentrations in the mixture are 1.67 μM NS3, 4.15 mM NS4A-2 (2485-fold molar excess NS4A-2).
After 15 minutes at 4° C., the NS3/NS4A-2 eppendorf tube was removed and place it in a room temperature water bath for 10 minutes. NS3/NS4A-2 was aliquoted at appropriate volumes and store at −80° C. (E. coli NS3 run at 2 nM in assay, aliquot at 25 μL. BV NS3 run at 3 nM in assay, aliquot at 30 μL).
Sample compounds were dissolved to 10 mM in DMSO then diluted to 2.5 mM (1:4) in DMSO. Typically, compounds were added to an assay plate at 2.5 mM concentration, yielding upon dilution a starting concentration of 50 microM in the assay inhibition curve. Compounds were serial diluted in assay buffer to provide test solutions at lower concentrations.
The E. coli. NS3/NS4A-2 was diluted to 4 nM NS3 (1:417.5 of 1.67 μM stock−18 μL1.67 μM stock+7497 μL assay buffer). The BV NS3/NS4A-2 was diluted to 6 nM NS3 (1:278.3 of 1.67 μM stock−24 μL1.67 μM stock+6655 μL assay buffer). Using the manual multichannel pipettor, careful not to introduce bubbles into the plate, add 50 μL assay buffer to wells A01-H01 of a black Costar 96-well polypropylene storage plate.
Using the manual multichannel pipettor, careful not to introduce bubbles into the plate, add 50 μL of diluted NS3/NS4A-2 from step 2.2.6 to wells A02-H12 of plate in step 2.2.7. Using the manual multichannel pipettor, careful not to introduce bubbles into the plate, transfer 25 μL of the wells in drug dilution plate in step 2.2.5 to corresponding wells in assay plate in step 2.2.8. Change tips on multichannel pipettor for each row of compounds transferred. Using the manual multichannel pipettor, careful not to introduce bubbles into the plate, mix the wells from the assay plate in step 2.2.9 by aspirating and dispensing 35 μL of the 75 μL in each well five times. Change tips on multichannel pipettor for each row of wells mixed. Cover plate with a polystyrene plate lid and pre-incubate the plate from step 2.2.10 containing NS3 protease and sample compounds 10 minutes at room temperature. While plate from step 2.2.11 is pre-incubating, dilute RETS1 substrate in a 15 mL polypropylene centrifuge tube. Dilute RETS1 substrate to 8 μM (1:80.75 of 646 μM stock−65 μL 646 μM stock+5184 μL assay buffer).
After the plate in step is done pre-incubating, and using the manual multichannel, add 25 μL of substrate to all wells on the plate. Quickly mix the plate as in step 2.2.10, mixing 65 μL of the 100 μL in the wells.
Read the plate in kinetic mode on the Molecular Devices SpectraMax Gemini XS plate reader. Reader settings: Read time: 30 minutes, Interval: 36 seconds, Reads: 51, Excitation λ: 335 nm, Emission λ: 495 nm, cutoff: 475 nm, Automix: off, Calibrate: once, PMT: high, Reads/well: 6, Vmax pts: 21 or 28/51 depending on length of linearity of reaction
IC50s are determined using a four parameter curve fit equation, and converted to Ki's using the following Km's: • Full-length E. coli NS3−2.03 μM • Full-length BV NS3−1.74 μM • where Ki=IC50/(1+[S]/Km)) • Quantitation by ELISA of the Selectable Marker Protein, Neomycin Phosphotransferase II (NPTII) in the HCV Sub-Genomic Replicon, GS4.3

Bounds are passed on as bounds.

The term EC50 denotes the midpoint of the concentration-response curve. The IC50 is the midpoint of a concentration-inhibition curve.

With `CC[C@@H]1C[C@]1(NC(=O)[C@@H]1C[C@@H](Oc2nc3ccccc3s2)CN1C(=O)[C@@H](Nc1cncc(C(F)(F)F)c1)C(C)(C)C)C(=O)NS(=O)(=O)C1CC1` [Compound 70], the concentration giving a half-maximal response (EC50) in assay [1] was less than 100 nM. Moreover, in assay [2], the 50% inhibitory concentration (IC50) was less than 100 nM.

Regarding `CC(C)[C@H](Nc1cccc(C(C)(C)C)c1)C(=O)N1C[C@H](OC(=O)N2Cc3cccc(Cl)c3C2)C[C@H]1C(=O)N[C@]1(C(=O)NS(=O)(=O)C2CC2)C[C@H]1C1CC1` [Compound 59, [(3R,5S)-1-((S)-2-(3-tert-butylphenylamino)-3-methylbutanoyl)-5-((1R,2S)-1-(cyclopropylsulfonylcarbamoyl)-2-cyclopropylcyclopropylcarbamoyl)pyrrolidin-3-yl]4-chloroisoindoline-2-carboxylate], the concentration for a half-maximal effect (EC50) in assay [1] is less than 100 nM. For the same molecule, the half-inhibitory concentration (IC50) in assay [2] is less than 100 nM.

For `C=C[C@@H]1C[C@]1(NC(=O)[C@H]1Cc2cc(Oc3cccc(Cl)c3)ccc2CN1C(=O)[C@@H](Nc1ccc(F)cc1)C(C)(C)C)C(=O)NS(=O)(=O)C1CC1` [Compound 12, (R)-6-(3-chlorophenoxy)-N-((1R,2S)-1-(cyclopropylsulfonylcarbamoyl)-2-vinylcyclopropyl)-2-((S)-2-(4-fluorophenylamino)-3,3-dimethylbutanoyl)-1,2,3,4-tetrahydroisoquinoline-3-carboxamide], the EC50 in assay [1] lay within 10000 to 50000 nM. The half-maximal inhibitory concentration (IC50) in assay [2] is 100 to 1000 nM.

Take `CC[C@@H]1C[C@]1(NC(=O)[C@@H]1C[C@@H](OC(=O)N2Cc3cccc(Cl)c3C2)CN1C(=O)[C@@H](Nc1cccc(C(F)(F)F)c1)C(C)(C)C)C(=O)NOCC1CC1` [Compound 72]: in assay [1], the EC50 lay within 100 to 1000 nM. In addition, the IC50 in assay [2] is 100 to 1000 nM.

As for `CC[C@@H]1C[C@]1(NC(=O)[C@@H]1C[C@@H](OC(=O)N2Cc3cccc(F)c3C2)CN1C(=O)[C@@H](Nc1cccc(C)c1)C(C)C)C(=O)NS(=O)(=O)C1CC1` [Compound 49, [(3R,5S)-5-((1R,2R)-1-(cyclopropylsulfonylcarbamoyl)-2-ethylcyclopropylcarbamoyl)-1-((S)-3-methyl-2-(m-tolylamino)butanoyl)pyrrolidin-3-yl]4-fluoroisoindoline-2-carboxylate], the 50% effective concentration (EC50) in assay [1] lay in the range of 100 to 1000 nM. The IC50 in assay [2] was less than 100 nM.

For the molecule `C=C[C@@H]1C[C@]1(NC(=O)[C@@H]1C[C@@H](OC(=O)N2Cc3cccc(Cl)c3C2)CN1C(=O)[C@@H](Nc1cccc(C(C)(C)C)c1)C(C)C)C(=O)NS(=O)(=O)C1CC1` [Compound 41, [(3R,5S)-1-((S)-2-(3-tert-butylphenylamino)-3-methylbutanoyl)-5-((1R,2S)-1-(cyclopropylsulfonylcarbamoyl)-2-vinylcyclopropylcarbamoyl)pyrrolidin-3-yl]4-chloroisoindoline-2-carboxylate], in assay [1], the EC50 is less than 100 nM. The IC50 in assay [2] is less than 100 nM.

For the molecule `CC[C@@H]1C[C@]1(NC(=O)[C@@H]1C[C@@H](OC(=O)N2Cc3cccc(F)c3C2)CN1C(=O)[C@@H](Nc1cncc(C(F)(F)F)c1)C(C)(C)C)C(=O)NS(=O)(=O)C1CC1` [Compound 57, [(3R,5S)-5-((1R,2R)-1-(cyclopropylsulfonylcarbamoyl)-2-ethylcyclopropylcarbamoyl)-1-((S)-3,3-dimethyl-2-(5-(trifluoromethyl)pyridin-3-ylamino)butanoyl)pyrrolidin-3-yl]4-fluoroisoindoline-2-carboxylate], in assay [1], the EC50 is less than 100 nM. In assay [2], the IC50 is less than 100 nM.

As to `CC[C@@H]1C[C@]1(NC(=O)[C@@H]1C[C@@H](OC(=O)N2Cc3cccc(Cl)c3C2)CN1C(=O)[C@@H](Nc1cc(F)cc(C(F)(F)F)c1)C(C)(C)C)C(=O)NS(=O)(=O)C1CC1` [Compound 77], the EC50 in assay [1] was less than 100 nM.

Turning to `CC[C@@H]1C[C@]1(NC(=O)[C@@H]1C[C@@H](OC(=O)N2Cc3cccc(Cl)c3C2)CN1C(=O)[C@@H](Nc1cc(F)cc(C(F)(F)F)c1)C(C)(C)C)C(=O)NS(=O)(=O)C1CC1` [Compound 73, (3R,5S)-5-((1R,2R)-1-(cyclopropylsulfonylcarbamoyl)-2-ethylcyclopropylcarbamoyl)-1-((S)-2-(3-fluoro-5-(trifluoromethyl)phenylamino)-3,3-dimethylbutanoyl)pyrrolidin-3-yl 4-chloroisoindoline-2-carboxylate], the IC50 in assay [2] is less than 100 nM.

Turning to “[(3R,5S)-5-(((1R,2R)-1-(Cyclopropylsulfonylcarbamoyl)-2-ethylcyclopropyl)carbamoyl)-1-((S)-2-(5-isopropylthiazol-2-ylamino)-3,3-dimethylbutanoyl)pyrrolidin-3-yl]4-chloroisoindoline-2-carboxylate [Compound 65]”, the IC50 in assay [2] is less than 100 nM.

(Values after patent US7932277B2, “Peptide inhibitors of hepatitis C virus replication” (InterMune, Inc., priority 2007, dated 2011).)
